Publication PMC10761696, “Avapritinib-based SAR studies unveil a binding pocket in KIT and PDGFRA” (Nature Communications, 2024)
“And” between values parts separate entries of the source, which are not always exact repeats. Equal entries are not always repeated. Where two headings read alike, the source gives them in different places.

Tests used:
MDA-MB-175VII = assay: CellTiter-Glo (CTG) EC50, MDA-MB-175VII breast cancer control cell line; type: cell-based, human
Experimental: (§1) Cell line authenticity was confirmed by STR analysis at Eurofins Genomics. All cell lines were tested regularly for mycoplasma contamination using the Mycoplasmacheck Service at Eurofins Genomics. […] Following incubation for 24 h in a humidified atmosphere at 37 °C and 5% CO2, cells were treated with inhibitors in serial dilutions ranging from 30 µM down to 0.1 nM using an Echo650 acoustic liquid handler (Beckman Coulter). Cell viability was analyzed on day 5 using the CellTiter-Glo® assay (Promega) using 500 ms integration time. The obtained data were normalized to the plate positive control (30 µM staurosporine) and negative control (DMSO) and subsequently analyzed and fitted with the Quattro Software Suite (Quattro Research) using a four-parameter logistic model. As quality control, the Z’-factor was calculated from 16 positive and negative control values. Only assay results showing a Z’-factor ≥0.5 were used for further analysis. All experimental points were measured in duplicates for each plate and were independently replicated in at least three plates.

T1-V654A = assay: CellTiter-Glo (CTG) GR50, T1-V654A; conditions: Homo sapiens
SK-LMS-1 = assay: CellTiter-Glo (CTG) GR50, SK-LMS-1 control cell line; conditions: for CTG GR50 SK-LMS-1, single determinations: raw data of Supp. Tab. 2, independent experiments, unit from Supp. Tab. 2; for CTG GR50 SK-LMS-1: mean ± s.d., n = 3, control cell line
ZR-75-1 = assay: CellTiter-Glo (CTG) EC50, ZR-75-1 breast cancer control cell line; type: cell-based, human
Experimental: as §1

T1-a-5258 = assay: CellTiter-Glo (CTG) GR50, T1-a-5258; conditions: Homo sapiens
T1-T670I = assay: CellTiter-Glo (CTG) GR50, T1-T670I; conditions: Homo sapiens
GIST-T1 = assay: CellTiter-Glo (CTG) GR50, GIST-T1; conditions: Homo sapiens
PDGFRA-D842V = target: T1, PDGFRA-D842V (Homo sapiens, UniProt P16234, D842V); assay: Activity-based HTRF KinEASE assay, PDGFRA-D842V; type: biochemical
T1 construct: purchased Invitrogen PV4203 (lot #2343231B)

KIT-D816H = KIT-D816H (Homo sapiens, UniProt P10721, D816H); assay: Activity-based HTRF KinEASE assay, KIT-D816H; type: biochemical
GIST-48B = assay: CellTiter-Glo (CTG) GR50, GIST-48B control cell line (off-target toxicity); conditions: ratio of GR50 values; for GIST-48B/D842V: source data sheet
[1] = MDCKII-MDR1 permeability assay; conditions: dog, MDCK-MDR1, Papp A->B, MDCKII-MDR1; assay conc. 10; apical to basolateral
MDR1 = assay: MDCKII-MDR1 permeability assay; conditions: dog, MDCKII-MDR1, assay conc. 10
[2] = Homo sapiens, MDA-MB-175-VII, read-out: CTG EC50 MDA-MB-175VII, mean ± s.d., n = 3, control cell line
[3] = Homo sapiens, MDA-MB-175-VII, read-out: CTG EC50 MDA-MB-175VII, single determinations, raw data of Supp. Tab. 2, independent experiments, unit from Supp. Tab. 2
[4] = read-out: CTG GR50 T1-V654A, single determinations, raw data of Supp. Tab. 1, independent experiments, unit from Supp. Tab. 1
[5] = read-out: KIT CTG GR50 T1-V654A, mean ± s.d., n ≥ 3 (* n = 2 for ava)
[6] = Homo sapiens, ZR-75-1, mean ± s.d., n = 3, control cell line, read-out: CTG EC50 ZR-75-1
[7] = Homo sapiens, ZR-75-1, raw data of Supp. Tab. 2, independent experiments, unit from Supp. Tab. 2, read-out: CTG EC50 ZR-75-1, single determinations
[8] = read-out: CTG GR50 T1-a-5258, single determinations, raw data of Supp. Tab. 1, independent experiments, unit from Supp. Tab. 1
[9] = read-out: PDGFRA CTG GR50 T1-a-5258, mean ± s.d., n ≥ 3, triple mutant D842V, G652E, V658A
[10] = read-out: CTG GR50 T1-T670I, single determinations, raw data of Supp. Tab. 1, independent experiments, unit from Supp. Tab. 1
[11] = read-out: KIT CTG GR50 T1-T670I, mean ± s.d., n ≥ 3
[12] = GISTT1, read-out: KIT CTG GR50 GIST-T1, mean ± s.d., n ≥ 3, GR50 half-maximal growth inhibition rate
[13] = mean ± s.d., n ≥ 3, ATP at KM (14 µM), read-out: HTRF IC50 PDGFRA-D842V
[14] = raw data of Table 1, independent experiments 1-3, unit from Table 1, read-out: HTRF IC50 PDGFRA-D842V, single determinations
[15] = mean ± s.d., n ≥ 3, ATP at KM (12 µM), read-out: HTRF IC50 KIT-D816H
[16] = raw data of Table 1, independent experiments, unit from Table 1, read-out: HTRF IC50 KIT-D816H, single determinations
[17] = GISTT1, read-out: CTG GR50 GIST-T1, single determinations, raw data of Table 1, independent experiments, unit from Table 1

T1 sequence (P16234 24-1089 D842V): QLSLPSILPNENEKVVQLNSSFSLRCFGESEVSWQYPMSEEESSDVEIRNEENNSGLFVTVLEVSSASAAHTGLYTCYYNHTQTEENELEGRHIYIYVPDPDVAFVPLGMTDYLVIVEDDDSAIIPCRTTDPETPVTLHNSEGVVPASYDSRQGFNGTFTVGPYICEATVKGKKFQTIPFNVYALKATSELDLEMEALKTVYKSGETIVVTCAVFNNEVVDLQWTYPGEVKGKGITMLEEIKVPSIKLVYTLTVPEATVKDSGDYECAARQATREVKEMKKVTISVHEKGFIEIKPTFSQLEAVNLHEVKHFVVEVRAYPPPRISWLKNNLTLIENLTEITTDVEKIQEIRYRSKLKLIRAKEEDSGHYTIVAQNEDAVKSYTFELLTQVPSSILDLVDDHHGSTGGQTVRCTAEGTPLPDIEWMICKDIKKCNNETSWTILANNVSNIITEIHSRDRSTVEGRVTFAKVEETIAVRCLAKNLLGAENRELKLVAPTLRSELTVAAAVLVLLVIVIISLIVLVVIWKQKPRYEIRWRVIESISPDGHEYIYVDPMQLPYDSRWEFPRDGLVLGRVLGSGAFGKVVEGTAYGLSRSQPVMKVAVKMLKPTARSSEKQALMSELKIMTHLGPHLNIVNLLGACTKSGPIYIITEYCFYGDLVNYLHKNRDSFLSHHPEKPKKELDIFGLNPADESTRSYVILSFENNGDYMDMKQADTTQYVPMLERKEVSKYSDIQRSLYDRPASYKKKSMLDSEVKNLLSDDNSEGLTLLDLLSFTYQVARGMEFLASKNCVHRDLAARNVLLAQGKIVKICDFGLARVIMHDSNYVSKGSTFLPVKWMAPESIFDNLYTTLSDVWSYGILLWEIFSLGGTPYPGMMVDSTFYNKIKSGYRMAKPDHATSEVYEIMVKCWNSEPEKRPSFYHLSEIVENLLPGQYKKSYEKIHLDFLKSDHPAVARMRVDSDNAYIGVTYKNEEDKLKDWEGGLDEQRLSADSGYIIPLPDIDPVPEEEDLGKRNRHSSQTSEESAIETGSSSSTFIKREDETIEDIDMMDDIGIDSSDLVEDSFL
Sequence of KIT-D816H (P10721 26-976 D816H): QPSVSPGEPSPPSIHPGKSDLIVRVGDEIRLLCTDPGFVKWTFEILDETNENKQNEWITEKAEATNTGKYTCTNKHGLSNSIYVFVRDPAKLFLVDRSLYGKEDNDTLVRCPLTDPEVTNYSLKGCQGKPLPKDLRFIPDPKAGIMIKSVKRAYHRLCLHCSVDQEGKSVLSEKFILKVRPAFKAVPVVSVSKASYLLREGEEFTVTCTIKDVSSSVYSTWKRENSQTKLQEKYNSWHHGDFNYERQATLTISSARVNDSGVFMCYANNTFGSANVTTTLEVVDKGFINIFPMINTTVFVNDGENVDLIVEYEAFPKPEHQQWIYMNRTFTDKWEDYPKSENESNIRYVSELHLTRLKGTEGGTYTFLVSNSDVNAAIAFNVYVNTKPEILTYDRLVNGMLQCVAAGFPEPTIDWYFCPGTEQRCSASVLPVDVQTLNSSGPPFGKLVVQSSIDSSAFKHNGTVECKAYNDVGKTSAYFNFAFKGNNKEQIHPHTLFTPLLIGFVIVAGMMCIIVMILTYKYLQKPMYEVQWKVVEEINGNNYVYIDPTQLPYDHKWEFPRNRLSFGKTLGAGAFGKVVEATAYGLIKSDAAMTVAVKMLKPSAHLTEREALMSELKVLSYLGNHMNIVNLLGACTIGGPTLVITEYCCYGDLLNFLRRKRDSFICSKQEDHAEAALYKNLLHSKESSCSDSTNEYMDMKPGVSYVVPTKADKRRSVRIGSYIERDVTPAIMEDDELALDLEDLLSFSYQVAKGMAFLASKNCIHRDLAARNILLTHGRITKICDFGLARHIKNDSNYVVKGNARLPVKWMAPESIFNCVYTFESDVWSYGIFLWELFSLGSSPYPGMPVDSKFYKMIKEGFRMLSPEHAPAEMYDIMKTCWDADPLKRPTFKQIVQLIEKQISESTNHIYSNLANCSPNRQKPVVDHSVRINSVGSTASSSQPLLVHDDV

Row | Compound | EC50 (MDA-MB-175VII; [2]) | EC50 (MDA-MB-175VII; [3]) | GI50 (T1-V654A; [4]) | GI50 (T1-V654A; [5]) | CTG GR50 SK-LMS-1, single determinations (SK-LMS-1) | EC50 (ZR-75-1; [6]) | EC50 (ZR-75-1; [7]) | GI50 (T1-a-5258; [8]) | GI50 (T1-a-5258; [9]) | GI50 (T1-T670I; [10]) | GI50 (T1-T670I; [11]) | GI50 (GIST-T1; [12]) | IC50 (PDGFRA-D842V; [13]) | IC50 (PDGFRA-D842V; [14]) | CTG GR50 SK-LMS-1 (SK-LMS-1) | IC50 (KIT-D816H; [15]) | IC50 (KIT-D816H; [16]) | ratio GIST-48B/ T1-a-D842V (GIST-48B) | GIST-48B/D842V (GIST-48B) | GI50 (GIST-T1; [17]) | other results
1 | Cn1cc(-c2cc3c(N4CCN(c5ncc(Cc6ccccc6)cn5)CC4)ncnn3c2)cn1 [Compound 5] | ≥ 10 µM | ≥ 10 µM | ≥ 10 µM | ≥ 10 µM | ≥10 µM | ≥ 10 µM | ≥ 10 µM | 6.6 µM | 8.26 ± 1.7 µM | ≥ 10 µM | ≥ 10 µM | 1.48 ± 1.2 µM |  |  |  |  |  |  |  |  | 
2 | CCN[C@@](C)(c1ccc(F)cc1)c1cnc(N2CCN(c3ncnn4cc(-c5cnn(C)c5)cc34)CC2)nc1 [Compound 9] | ≥ 10 µM | ≥ 10 µM | 0.532 µM | 0.575 ± 0.159 µM | 7.123 µM and 10 µM | ≥ 10 µM | ≥ 10 µM | 1.16 µM | 1.33 ± 0.22 µM | 1.33 µM | 1.5 ± 0.223 µM | 0.092 ± 0.016 µM | < 0.0001 µM | < 0.0001 µM | 9.041 ± 1.661 µM and 9.041 µM | 0.0004 ± 0.0002 µM | 0.00026 µM and 0.00054 µM and 0.00027 µM | 155 | 155 | 0.109 µM | 
3 | Cn1cc(-c2cc3c(N4CCN(c5ncccn5)CC4)ncnn3c2)cn1 [Compound 4] | ≥ 10 µM | ≥ 10 µM | ≥ 10 µM | ≥ 10 µM | ≥10 µM | ≥ 10 µM | ≥ 10 µM | ≥ 10 µM | ≥ 10 µM | ≥ 10 µM | ≥ 10 µM | 5.27 ± 0.509 µM | 0.035 ± 0.013 µM | 0.0496 µM and 0.0362 µM and 0.0185 µM |  | 0.076 ± 0.045 µM | 0.0275 µM and 0.0821 µM and 0.118 µM | 5 | 5.3 | 5.8 µM | fold increase in potency with respect to PDGFRA-D842V (PDGFRA-D842V; 4 (pyrimidine added) compared with 3): 160 fold
4 | Cn1cc(-c2cc3c(N4CCNCC4)ncnn3c2)cn1 [Compound 3] | ≥ 10 µM | ≥ 10 µM |  |  | ≥10 µM | ≥ 10 µM | ≥ 10 µM |  |  |  |  | ≥ 10 µM | 5.59 ± 2.56 µM | 2.5 µM and 8.76 µM and 5.5 µM |  | 1.54 ± 0.852 µM | 1.4 µM and 0.766 µM and 2.45 µM | 1 | 1 | ≥ 10 µM | 
5 | Cn1cc(-c2cc3c(Cl)ncnn3c2)cn1 [Compound 2, 4-chloro-6-(1-methyl-1H-pyrazol-4-yl)pyrrolo[2,1-f][1,2,4]triazine] | 9.19 µM | 10 µM | 6.09 µM | 7.56 ± 0.991 µM |  | 6.48 µM | 7.51 µM | 1.38 µM | 1.34 ± 0.07 µM | 3.55 µM | 2.87 ± 0.51 µM | 6.73 ± 2.07 µM | 7.34 µM | 4.47 µM and 9.3 µM and 8.26 µM | 7.713 ± 3.929 µM and 7.713 µM | 9.3 ± 1.21 µM | 7.91 µM and 10 µM (2×) | 3 | 3 |  | EC50 (MDA-MB-175VII; read-out: CTG EC50 MDA-MB-175VII, single determinations, raw data of Supp. Tab. 2, independent experiments, unit from Supp. Tab. 2): 7.57 µM; EC50 (ZR-75-1; raw data of Supp. Tab. 2, independent experiments, unit from Supp. Tab. 2, read-out: CTG EC50 ZR-75-1, single determinations): 7.14 µM and 4.8 µM
6 | Cn1cc(-c2cc3c(N4CC5(CN(c6ncc(Cc7ccccc7)cn6)C5)C4)ncnn3c2)cn1 [Compound 6] | ≥ 10 µM | ≥ 10 µM | ≥ 10 µM | ≥ 10 µM | ≥10 µM | ≥ 10 µM | ≥ 10 µM | 8.79 µM | 9.53 ± 0.65 µM | ≥ 10 µM | ≥ 10 µM | ≥ 10 µM | 7.35 ± 0.884 µM | 6.11 µM and 7.81 µM and 8.13 µM |  | 2.16 ± 0.167 µM | 2.28 µM and 2.04 µM | 1 | 1 | ≥ 10 µM | 
7 | Cn1cc(-c2cc3c(N4CCN(c5ncc(C(C)(N)c6ccc(F)cc6)cn5)CC4)ncnn3c2)cn1 (centres unmarked) [1 (avapritinib)] |  |  |  |  |  |  |  |  |  |  |  |  |  |  |  |  |  |  |  |  | Papp A→B at 2 h, 10 µM [1]: 12.5 ×10⁻⁶ cm/s; recovery at 2 h, 10 µM (MDR1; MDCK-MDR1, Recovery A->B): 87.6%; recovery at 2 h, 10 µM (MDR1; MDCK-MDR1, Recovery B->A): 150%
8 | CN(C)[C@@](C)(c1ccc(F)cc1)c1cnc(N2CCN(c3ncnn4cc(-c5cnn(C)c5)cc34)CC2)nc1 [Compound 8] | ≥ 10 µM | ≥ 10 µM | 0.999 µM | 1.17 ± 0.264 µM | 5.894 µM and 10 µM | ≥ 10 µM | ≥ 10 µM | 1.4 µM | 1.66 ± 0.25 µM | 2.77 µM | 2.56 ± 0.258 µM | 0.254 ± 0.074 µM | 0.0004 ± 0.0001 µM | 0.00028 µM and 0.00038 µM and 0.00056 µM | 8.631 ± 2.371 µM and 8.631 µM | 0.0023 ± 0.0017 µM | 0.0035 µM and 0.0024 µM and 0.0011 µM | 33 | 33 | 0.35 µM | fold decrease in potency at the biochemical level compared to avapritinib (PDGFRA-D842V; HTRF IC50, PDGFRA-D842V and KIT-D816H): 3–5 fold
